Common to all, as to format: biochemical
In one assay the target is T1, human Src enzyme (Homo sapiens, UniProt P12931).
T1 construct: purchased Carna Biosciences, Inc. 08-173
In words: Src enzyme inhibitory activity (time-resolved fluorometry, biotinylated peptide phosphorylation). Particulars: read-out: SRC_IC50. A digest of the protocol: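 Compounds were tested for blocking tyrosine phosphorylation of a biotinylated peptide substrate by recombinant human Src. Phosphorylated product was quantified by time-resolved fluorometry using europium cryptate and XL665 conjugates, and IC50 was calculated against the compound-free control.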

In the next assay the target is T2, human Yes1 enzyme (Homo sapiens, UniProt P07947).
T2 construct: made in house
T2 sequence (P07947 whole entry): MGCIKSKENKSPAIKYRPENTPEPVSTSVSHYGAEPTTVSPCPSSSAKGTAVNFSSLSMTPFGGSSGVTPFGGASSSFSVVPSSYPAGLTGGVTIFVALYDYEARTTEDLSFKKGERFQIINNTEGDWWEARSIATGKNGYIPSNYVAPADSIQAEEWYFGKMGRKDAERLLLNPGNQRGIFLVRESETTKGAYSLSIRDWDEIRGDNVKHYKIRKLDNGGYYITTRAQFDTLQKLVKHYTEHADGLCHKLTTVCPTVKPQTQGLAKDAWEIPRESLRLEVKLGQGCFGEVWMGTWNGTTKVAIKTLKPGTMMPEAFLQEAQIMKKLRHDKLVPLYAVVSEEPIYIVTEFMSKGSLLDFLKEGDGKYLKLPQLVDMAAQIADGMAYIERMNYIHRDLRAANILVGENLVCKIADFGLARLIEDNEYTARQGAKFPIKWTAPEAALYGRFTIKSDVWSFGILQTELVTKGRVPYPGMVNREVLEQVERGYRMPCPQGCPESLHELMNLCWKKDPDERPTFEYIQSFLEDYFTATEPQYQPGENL
In words: Yes1 enzyme inhibitory activity (time-resolved fluorometry, biotinylated peptide phosphorylation). Particulars: read-out: YES_IC50. A digest of the protocol: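 Inhibition was expressed against a compound-free control to give IC50, using TR-FRET read-out (Eu-cryptate anti-pTyr antibody, streptavidin-XL665).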

The target of another assay is T3, human Lck enzyme (Homo sapiens, UniProt P06239).
T3 construct: purchased Carna Biosciences, Inc. 08-170
T3 sequence (P06239 whole entry): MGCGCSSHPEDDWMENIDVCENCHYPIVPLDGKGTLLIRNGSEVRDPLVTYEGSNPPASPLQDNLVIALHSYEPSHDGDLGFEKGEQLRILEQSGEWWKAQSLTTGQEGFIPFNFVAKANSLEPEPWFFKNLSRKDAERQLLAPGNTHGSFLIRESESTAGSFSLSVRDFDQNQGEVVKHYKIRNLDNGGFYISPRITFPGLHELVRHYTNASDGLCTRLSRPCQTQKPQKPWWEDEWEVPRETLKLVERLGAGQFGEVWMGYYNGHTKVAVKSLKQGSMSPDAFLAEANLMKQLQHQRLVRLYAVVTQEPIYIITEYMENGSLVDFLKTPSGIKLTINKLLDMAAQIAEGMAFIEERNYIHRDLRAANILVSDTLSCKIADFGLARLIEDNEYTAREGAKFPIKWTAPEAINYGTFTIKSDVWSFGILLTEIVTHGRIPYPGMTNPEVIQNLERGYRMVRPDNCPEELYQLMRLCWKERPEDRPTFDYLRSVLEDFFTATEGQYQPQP
Put plainly: Lck enzyme inhibitory activity (time-resolved fluorometry, biotinylated peptide phosphorylation). Particulars: read-out: LCK_IC50. In short, it runs like this:
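Readout pairs a europium cryptate-labelled anti-phosphotyrosine antibody with XL665-streptavidin, measured by time-resolved fluorescence. IC50 derived from percent inhibition against untreated controls.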

T1 sequence (P12931 whole entry): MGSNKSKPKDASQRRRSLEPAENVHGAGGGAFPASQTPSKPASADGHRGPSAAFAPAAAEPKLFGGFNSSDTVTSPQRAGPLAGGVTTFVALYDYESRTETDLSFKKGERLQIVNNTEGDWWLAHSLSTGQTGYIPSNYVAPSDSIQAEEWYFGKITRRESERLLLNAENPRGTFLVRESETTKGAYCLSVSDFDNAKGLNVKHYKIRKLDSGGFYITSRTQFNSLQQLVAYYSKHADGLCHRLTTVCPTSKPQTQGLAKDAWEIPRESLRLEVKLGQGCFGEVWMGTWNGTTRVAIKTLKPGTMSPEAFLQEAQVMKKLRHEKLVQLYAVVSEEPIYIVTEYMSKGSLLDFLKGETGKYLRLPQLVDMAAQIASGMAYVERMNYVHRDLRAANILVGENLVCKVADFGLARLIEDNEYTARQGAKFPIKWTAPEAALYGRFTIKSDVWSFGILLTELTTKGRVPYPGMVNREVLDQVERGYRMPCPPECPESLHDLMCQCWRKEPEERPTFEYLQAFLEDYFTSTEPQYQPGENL

For `Cc1cc(Oc2c(F)cccc2F)ncc1-n1ncc(C(=O)c2cc3cc(OC(F)F)c(N4CCN(S(C)(=O)=O)CC4)cc3[nH]2)c1N` [Example 5-1-075, [5-amino-1-[6-(2,6-difluorophenoxy)-4-methylpyridin-3-yl]pyrazol-4-yl]-[5-(difluoromethoxy)-6-(4-methylsulfonylpiperazin-1-yl)-1H-indol-2-yl]methanone], the IC50 was found to be 73 nM on human Src enzyme, 2.8 nM on human Yes1 enzyme and 18 nM on human Lck enzyme.
In the case of `Cc1cc(Oc2ccccc2F)cc(F)c1-n1ncc(C(=O)c2cc3cc(OC(F)F)c(NS(C)(=O)=O)cc3[nH]2)c1N` [Example 5-1-076, N-[2-[5-amino-1-[2-fluoro-4-(2-fluorophenoxy)-6-methylphenyl]pyrazole-4-carbonyl]-5-(difluoromethoxy)-1H-indol-6-yl] methanesulfonamine], the IC50 at human Src enzyme was 120 nM; on human Yes1 enzyme, 2.8 nM; at human Lck enzyme, 16 nM.
For the compound `Cc1cc2cc(C(=O)c3cnn(-c4ccc(Oc5ccccc5F)cc4C)c3N)[nH]c2cc1N1CCC(N2CCOCC2)CC1` [Example 5-1-077, [5-amino-1-[4-(2-fluorophenoxy)-2-methylphenyl]pyrazol-4-yl]-[5-methyl-6-(4-morpholin-4-ylpiperidin-1-yl)-1H-indol-2-yl] methanone], the IC50 at human Src enzyme is 42 nM; on human Yes1 enzyme, 1 nM; at human Lck enzyme, 7.1 nM.
In the case of `Cc1cc2cc(C(=O)c3cnn(-c4cnc(Oc5ccccc5F)cc4C)c3N)[nH]c2cc1N1CCC(N2CCOCC2)CC1` [Example 5-1-078, [5-amino-1-[6-(2-fluorophenoxy)-4-methylpyridin-3-yl]pyrazol-4-yl]-[5-methyl-6-(4-morpholin-4-ylpiperidin-1-yl)-1H-indol-2-yl]methanone], the IC50 at human Src enzyme was found to be 10 nM; on human Yes1 enzyme it was 0.28 nM; on human Lck enzyme, 2.4 nM.
Regarding `Cc1cc(Oc2c(F)cccc2F)ncc1-n1ncc(C(=O)c2cc3cc(OC(F)F)c(NC4CN(S(C)(=O)=O)C4)cc3[nH]2)c1N` [Example 5-1-079, [5-amino-1-[6-(2,6-difluorophenoxy)-4-methylpyridin-3-yl]pyrazol-4-yl]-[5-(difluoromethoxy)-6-[(1-methylsulfonylazetidin-3-yl)amino]-1H-indol-2-yl]methanone], the IC50 at human Src enzyme was 20 nM; on human Yes1 enzyme it was 1 nM; at human Lck enzyme it was 3.8 nM.
For the compound `Cc1cc(Oc2c(F)cccc2F)ncc1-n1ncc(C(=O)c2cc3cc(OCC(F)F)c(Br)cc3[nH]2)c1N` [Example 5-1-080, [5-amino-1-[6-(2,6-difluorophenoxy)-4-methylpyridin-3-yl]pyrazol-4-yl]-[6-bromo-5-(2,2-difluoroethoxy)-1H-indol-2-yl]methanone], the IC50 at human Src enzyme was 37 nM; at human Yes1 enzyme, 3.3 nM; on human Lck enzyme it was 14 nM.
For `Cc1cc2cc(C(=O)c3cnn(-c4cnc(Oc5cc(F)ccc5F)cc4C)c3N)[nH]c2cc1NS(C)(=O)=O` [Example 5-1-081, N-[2-[5-amino-1-[6-(2,5-difluorophenoxy)-4-methylpyridin-3-yl]pyrazole-4-carbonyl]-5-methyl-1H-indol-6-yl]methanesulfonamide], in that order: 110 nM, 2.4 nM and 6.4 nM.
Consider `Cc1cc(Oc2ccccc2F)ccc1-n1ncc(C(=O)c2cc3cc(OC(F)F)c(Br)cc3[nH]2)c1N` [Example 5-1-082, [5-amino-1-[4-(2-fluorophenoxy)-2-methylphenyl]pyrazol-4-yl]-[6-bromo-5-(difluoromethoxy)-1H-indol-2-yl]methanone], for which the IC50 on human Src enzyme is 26 nM; at human Yes1 enzyme, 1.9 nM; on human Lck enzyme it was 11 nM.
On to `Cc1cc(Oc2ccccc2F)ccc1-n1ncc(C(=O)c2cc3cc(OC(F)F)c(N)cc3[nH]2)c1N` [Example 5-1-083, [6-amino-5-(difluoromethoxy)-1H-indol-2-yl]-[5-amino-1-[4-(2-fluorophenoxy)-2-methylphenyl]pyrazol-4-yl]methanone], for which the IC50 amounted to 7.2 nM at human Src enzyme, 0.72 nM at human Yes1 enzyme and 7 nM at human Lck enzyme.
On the same counts, the results for `Cc1cc2cc(C(=O)c3cnn(-c4c(C)cc(Oc5ccccc5F)cc4F)c3N)[nH]c2cc1N1CCOCC1` [Example 5-1-084, [5-amino-1-[2-fluoro-4-(2-fluorophenoxy)-6-methylphenyl]pyrazol-4-yl]-(5-methyl-6-morpholin-4-yl-1H-indol-2-yl)methanone] are 34 nM, 4.1 nM and 4.5 nM.
On to `Cc1cc2cc(C(=O)c3cnn(-c4c(C)cc(Oc5ccccc5F)cc4F)c3N)[nH]c2cc1N1CCC(N2CCOCC2)CC1` [Example 5-1-085, [5-amino-1-[2-fluoro-4-(2-fluorophenoxy)-6-methylphenyl]pyrazol-4-yl]-[5-methyl-6-(4-morpholin-4-ylpiperidin-1-yl)-1H-indol-2-yl] methanone], for which the IC50 on human Src enzyme stood at 21 nM; at human Yes1 enzyme, 2.3 nM; at human Lck enzyme, 2 nM.
For `Cc1cc2cc(C(=O)c3cnn(-c4ccc(Oc5ccccc5F)cc4C)c3N)[nH]c2cc1C1CCN(S(C)(=O)=O)CC1` [Example 5-1-086, [5-amino-1-[4-(2-fluorophenoxy)-2-methylphenyl]pyrazol-4-yl]-[5-methyl-6-(1-methylsulfonylpiperidin-4-yl)-1H-indol-2-yl] methanone], in that order: 8.5 nM, 1.4 nM and 2.8 nM.
For `Cc1cc(Oc2ccccc2F)ccc1-n1ncc(C(=O)c2cc3cc(OCC(F)F)c(N4CCC(O)CC4)cc3[nH]2)c1N` [Example 5-1-087, [5-amino-1-[4-(2-fluorophenoxy)-2-methylphenyl]pyrazol-4-yl]-[5-(2,2-difluoroethoxy)-6-(4-hydroxypiperidin-1-yl)-1H-indol-2-yl]methanone], in that order: 13 nM, 0.77 nM and 3.9 nM.
`Cc1cc2cc(C(=O)c3cnn(-c4cnc(Oc5c(F)cccc5F)cc4C)c3N)[nH]c2cc1NS(=O)(=O)CC(=O)N1CCCC1` [Example 5-1-088, N-[2-[5-amino-1-[6-(2,6-difluorophenoxy)-4-methylpyridin-3-yl]pyrazole-4-carbonyl]-5-methyl-1H-indol-6-yl]-2-oxo-2-pyrrolidin-1-ylethanesulfonamide]: the IC50 was found to be 27 nM at human Src enzyme, 2.2 nM on human Yes1 enzyme and 2.8 nM at human Lck enzyme.
Regarding `Cc1cc2cc(C(=O)c3cnn(-c4c(C)cc(Oc5ccccc5F)cc4F)c3N)[nH]c2cc1NS(=O)(=O)CC(=O)NC(C)C` [Example 5-1-089, 2-[[2-[5-amino-1-[2-fluoro-4-(2-fluorophenoxy)-6-methylphenyl]pyrazole-4-carbonyl]-5-methyl-1H-indol-6-yl]sulfamoyl]-N-propan-2-ylacetamide], the IC50 came to 77 nM on human Src enzyme, 6.2 nM at human Yes1 enzyme and 8.9 nM at human Lck enzyme.
Regarding `Cc1cc2cc(C(=O)c3cnn(-c4cnc(Oc5ccccc5F)cc4C)c3N)[nH]c2cc1C1CCN(S(C)(=O)=O)CC1` [Example 5-1-090, [5-amino-1-[6-(2-fluorophenoxy)-4-methylpyridin-3-yl]pyrazol-4-yl]-[5-methyl-6-(1-methylsulfonylpiperidin-4-yl)-1H-indol-2-yl] methanone], the IC50 on human Src enzyme came to 25 nM; at human Yes1 enzyme, 2.6 nM; at human Lck enzyme it was 3.8 nM.
`Cc1cc2cc(C(=O)c3cnn(-c4cnc(Oc5c(F)cccc5F)cc4C)c3N)[nH]c2cc1C1CCN(S(C)(=O)=O)CC1` [Example 5-1-091, [5-amino-1-[6-(2,6-difluorophenoxy)-4-methylpyridin-3-yl]pyrazol-4-yl]-[5-methyl-6-(1-methylsulfonylpiperidin-4-yl)-1H-indol-2-yl] methanone]: the results for the IC50 on human Src enzyme, at human Yes1 enzyme and on human Lck enzyme were 24 nM, 3.2 nM and 3.7 nM, respectively.
For `Cc1cc2cc(C(=O)c3cnn(-c4ccc(Oc5c(F)cccc5F)cc4C)c3N)[nH]c2cc1NS(C)(=O)=O` [Example 5-1-092, N-[2-[5-amino-1-[4-(2,6-difluorophenoxy)-2-methylphenyl]pyrazole-4-carbonyl]-5-methyl-1H-indol-6-yl]methanesulfonamide], in that order: 16 nM, 0.91 nM and 2.8 nM.
For `Cc1cc(Oc2ccccc2F)ccc1-n1ncc(C(=O)c2cc3cc(N4CCOCC4)c(N4CCN(S(C)(=O)=O)CC4)cc3[nH]2)c1N` [Example 5-1-093, [5-amino-1-[4-(2-fluorophenoxy)-2-methylphenyl]pyrazol-4-yl]-[6-(4-methylsulfonylpiperazin-1-yl)-5-morpholin-4-yl-1H-indol-2-yl]methanone], the results for the IC50 at human Src enzyme, at human Yes1 enzyme and on human Lck enzyme were 11 nM, 1.8 nM and 3.7 nM, respectively.
Regarding `Cc1cc(Oc2ccccc2F)ccc1-n1ncc(C(=O)c2cc3cc(N4CCOCC4)c(N4CCOCC4)cc3[nH]2)c1N` [Example 5-1-094, [5-amino-1-[4-(2-fluorophenoxy)-2-methylphenyl]pyrazol-4-yl]-(5,6-dimorpholin-4-yl-1H-indol-2-yl)methanone], the IC50 on human Src enzyme is 19 nM; on human Yes1 enzyme, 2.9 nM; on human Lck enzyme, 4.1 nM.
Take `Cc1cc(Oc2ccccc2F)ccc1-n1ncc(C(=O)c2cc3cc(F)c(N4CCOC4=O)cc3[nH]2)c1N` [Example 5-1-095, 3-[2-[5-amino-1-[4-(2-fluorophenoxy)-2-methylphenyl]pyrazole-4-carbonyl]-5-fluoro-1H-indol-6-yl]-1,3-oxazolidin-2-one]: the IC50 at human Src enzyme came out at 4.5 nM; on human Yes1 enzyme, 0.87 nM; on human Lck enzyme, 1.5 nM.

Source of the values: patent US10479780B2, “Aminopyrazole derivatives” (Chugai Seiyaku Kabushiki Kaisha, priority 2015, dated 2019).
